{"source": "patent US8983257B2", "about": "“Therapeutic light delivery apparatus, method, and system” (Nomir Medical Technologies, Inc., priority 2002, dated 2015)", "key": {"[1]": {"test_system": "MRSA colonization in the nares", "test": "Human study Part One: nasal colonization of MRSA, NOVEON laser alone, with H2O2 or with topical erythromycin", "format": "in vivo, Staphylococcus aureus", "procedure": "(§1) This investigational protocol was an open-label study of subjects who are colonized with MRSA in the nares (nostril). The study was done in two parts.\n(§2) In this human study, three arms were produced. […] This was done on day 1 and again on day three; and Arm #3: ⅓ of the subjects were treated with the laser and then a topical antibiotic three times a day for five days. Prior to enrollment in this study, prospective subjects met all of the following criteria: age≧18 years and ≦70 years of age; previous positive MRSA culture; negative urine pregnancy test or post-menopausal for one year; willing to comply with study requirements, including return visits and self-application of topical antibiotics; and willing to provide informed consent to participate. Prospective subjects were excluded from this study if any of the following criteria were met: pregnancy; patients who are severely immunocompromised (such as may occur in AIDS, renal transplant regimens, immunosuppressed states consequent to malignancy or agents used in rendering oncologic care, or who suffer from end stage renal disease); diabetic patients; allergy to antimicrobials being used in the study (group 3).\n(§3) All participants underwent an initial quantitative assessment for nasal carriage of S. aureus, during their first visit. Each participant had the anterior nares (each nostril) sampled for culture with a circular movement (three rotations on each side) of a sterile wood applicator plain Rayon® tipped swab in each nostril and placed in a labeled tube. 2 ml of room temp phosphate buffered saline was placed in the tube after the removal of the swab (to completely cover the swab in the tube). Each swab was then placed back in the tube and the tube was then vortexed for 15 seconds to disperse isolates of MRSA and/or MSSA into the PBS solution. Aliquots of PBS from the tube were plated in the following manner: 100 μl from each tube was lawn plated in triplicate (3×) on selective Chromogenic MRSA And MSSA agar. Plates were placed in incubator within 30 minutes of the plating procedure, and colonies were counted manually, and recorded 18 hrs after plating.\n(§4) On day one of the study, all subjects underwent this exact procedure in arms 1 and 2 of the study two minutes before the laser procedure. They again were sampled in the same manner 2 minutes after the laser procedure. In the third arm of the study, they were swabbed two minutes before the procedure and the first antibiotic administration was completed after the laser therapy. The post/laser swab sample was taken for this arm 20 min later.\n(§5) On day three of the study, all subjects from arms one two and three underwent the exact same procedures as day 1 of the study.\n(§6) On day five all subjects from all arms underwent just one swabbing per nostril with the exact same sampling procedure one time.\n(§7) 3% OTC hydrogen peroxide was applied to a cotton pledget for application to the subject prior to irradiation. This was inserted in the nose for 120 seconds and then removed. The subjects were then given doses of phototherapeutic near infrared radiation as described.\n(§8) The subjects were first given doses of phototherapeutic near infrared radiation as described. […] The swab was inserted approximately 1 cm in to the anterior nares and rotated 360 degrees several times and removed. Patients were instructed to perform the exact application procedure 3 times a day for the remaining 5 days.\n(§9) The NOVEON™ laser was used for two (2) six-minute treatments in each nostril on day (1) and day (3) of the study.\n(§10) The laser was calibrated before the first treatment of the day. Intermittent temperature testing of the treatment site was performed on each subject using a noncontact infrared thermometer (Raytek Minitemp), 30-60 second intervals. If a temperature of 110 F degrees was reached, or the patient complained of pain, the laser treatment was interrupted and only resumed when the patient was comfortable."}, "[2]": {"test_system": "nasal colonization of MSSA", "test": "Human study Part Two: nasal colonization of erythromycin resistant MSSA, NOVEON laser plus 2% erythromycin paste", "format": "in vivo, Staphylococcus aureus", "conditions": "six patients, before phototherapy", "procedure": "(§11) A second human study was conducted, to further evaluate the therapeutic potential of the NOVEON™ laser system, including its ability to reverse drug resistance in bacteria. The study was conducted in a similar manner as Part One, above. Outcome measures assessed included both laboratory study and clinical observations.\n(§12) Positive anterior nares cultures were obtained in six patients (12 nostrils) having nasal colonization of MRSA or MSSA, before initiating bacterial photodamage through doses of phototherapeutic near infrared radiation.\n(§13) The swab was inserted approximately 1 cm in to the anterior nares of the subject, rotated 360 degrees several times and removed.\n(§14) The laser was calibrated before the first treatment of the day and between each patient. The NOVEON™ laser was used for four six-minute treatments of the nares at the following sets of dosimetries (Tables 45), which were evaluated for safety in previous studies. Utilizing a 10 cm flat-top diffuser, each patient underwent exposure with the Noveon for […] (energy density—207 J/cm2) to each anterior nostril on Day 1 and on Day 3. The treatment was divided into two parts, an approximately 3-minute exposure using a combination of 870 nm and 930 nm and an approximately 3-minute exposure of 930 nm alone. Temperatures of the nares were recorded every 30 seconds with an IR temperature thermometer."}, "MRSA [3]": {"test_system": "MRSA", "test": "MRSA CFU counts on agar with trimethoprim or erythromycin after sub-lethal NIMELS laser (Example VIII)", "format": "cell-based, Staphylococcus aureus", "source_text": "The following illustrates the general antibacterial methods according to the invention, using a MRSA model for the in vitro Experiments V and VIII-XII.\na) μ1 is sub-lethal dosimetry from the NIMEL laser system on MRSA as a control and;"}, "[4]": {"test_system": "MSSA colonies in the nares", "test": "Human study Part One: nasal colonization of MSSA, NOVEON laser alone, with H2O2 or with topical erythromycin", "format": "in vivo, Staphylococcus aureus", "conditions": "patient 01-005, Laser/erythromycin arm", "procedure": "as §1, §2, §3, §4, §5, §6, §7, §8, §9, §10"}, "[5]": {"test_system": "nasal colonization of MRSA", "test": "Human study Part Two: nasal colonization of erythromycin resistant MRSA, NOVEON laser plus 2% erythromycin paste", "format": "in vivo, Staphylococcus aureus", "conditions": "six patients, before phototherapy", "procedure": "as §11, §12, §13, §14"}, "MRSA [6]": {"test_system": "MRSA", "test": "MRSA/antimicrobial potentiation Experiment 4: CFU with or without methicillin, penicillin G or erythromycin, groups A4 to F4", "format": "cell-based, Staphylococcus aureus", "conditions": "for CFU: agar with 4 μg/ml erythromycin", "description": "Two different laser dosages based on an effective dose established in previous experiments were used to treat a saline-suspension of logarithmically growing MRSA, labeled A4 to F4.\nAfter 24 hrs of growth at 37° C. colonies were counted."}, "[7]": {"conditions": "patient 01-005, Laser/erythromycin arm, 2% erythromycin paste 3 times a day"}}, "note": "Several values for one entry are separate records, joined by “and”; a condition that tells them apart may be missing. Equal values may be shown once. Entries after “also recorded” stand apart in the source; their conditions may differ."}
{"smiles": "CC[C@H]1OC(=O)[C@H](C)[C@@H](O[C@H]2C[C@@](C)(OC)[C@@H](O)[C@H](C)O2)[C@H](C)[C@@H](O[C@@H]2O[C@H](C)C[C@H](N(C)C)[C@H]2O)[C@](C)(O)C[C@@H](C)C(=O)[C@H](C)[C@@H](O)[C@]1(C)O", "note": "[Erythromycin]", "values": [{"measurement": "outcome on MRSA colonization (in words)", "setting": "[1]; patient 01-005, Laser/erythromycin arm", "value": "MRSA and MSSA eradication in both nostrils"}, {"measurement": "reduction of bioburden, heavily colonized nostril", "setting": "[1]; [7]", "value": "≥ 3", "unit": "log"}, {"measurement": "reduction of bioburden, moderately colonized nostril", "setting": "[1]; [7]", "value": "≥ 2", "unit": "log"}, {"measurement": "sensitivity of the patient's MRSA colony to erythromycin before phototherapy", "setting": "[1]; patient 01-005, prior to phototherapy", "value": "not sensitive to erythromycin prior to phototherapy"}, {"measurement": "erythromycin resistance of cultured MSSA at baseline", "setting": "[2]", "value": "resistant to erythromycin"}, {"measurement": "MRSA colony count, EXPERIMENTAL, erythro 4 ug/ml", "setting": "MRSA [3]; sub-lethal NIMELS laser, then plated on agar with erythromycin 4 ug/ml, plates B-4 1 to 5", "value": "27 and 39 and 35 and 28"}, {"measurement": "effect of sub-lethal NIMELS on antibiotic resistance of MRSA (in words)", "setting": "MRSA [3]; sub-lethal laser parameters, erythromycin 4 ug/ml", "value": "resistance to erythromycin being reversed"}, {"measurement": "outcome on MSSA colonization (in words)", "setting": "[4]", "value": "MRSA and MSSA eradication in both nostrils"}, {"measurement": "erythromycin resistance of cultured MRSA at baseline", "setting": "[5]", "value": "resistant to erythromycin"}, {"measurement": "CFU", "setting": "MRSA [6]; Group E4, Exp (laser treated), replicate plates 1-5", "value": "0 CFU (3×) and 1 CFU (2×)"}, {"measurement": "CFU", "setting": "MRSA [6]; Group F4, Cont (no laser), replicate plates 1-5, 24 hrs 37° C.", "value": 170, "unit": "CFU"}, {"measurement": "CFU", "setting": "MRSA [6]; Group F4, Exp (laser treated), replicate plates 1-5", "value": "2 CFU and 7 CFU and 6 CFU (2×) and 8 CFU"}, {"measurement": "synergy or potentiation with NIMELS in growth inhibition of MRSA colonies (in words)", "setting": "MRSA [6]; sub-lethal NIMELS dosimetry, bar chart figure", "value": "synergistic effects; also recorded: potentiated to a greater extent"}, {"measurement": "reversal of MRSA resistance in vitro by dual wavelength NOVEON laser (in words)", "setting": "MRSA [6]; temperature levels not lethal to the organism", "value": "successful reversal of MRSA resistance"}]}
